The values that follow come from ChEMBL document CHEMBL2417377, “Hit-to-lead optimization and kinase selectivity of imidazo[1,2-a]quinoxalin-4-amine derived JNK1 inhibitors” (Bioorg Med Chem Lett, 2013).

Structures are written as SMILES.

What all share (conditions): PC-3
Test [1] deals with Dual specificity mitogen-activated protein kinase kinase 1 (Homo sapiens) (UniProt Q02750). Description: Inhibition of MAP2K1 in human PC3 cell lysates at 10 uM using desthiobiotin-tagged ATP probe AX9989 followed by trypsinization by LC/MS analysis.
In test [2] the target is IKK epsilon/TBK1 (Homo sapiens) (UniProt Q14164+Q9UHD2). The test can be described thus: Inhibition of IKKepsilon/TBK1 in human PC3 cell lysates at 10 uM using desthiobiotin-tagged ATP probe AX9989 followed by trypsinization by LC/MS analysis. In kind it is protein-complex assay.
Test [3] deals with Tyrosine-protein kinase CSK (Homo sapiens) (UniProt P41240). Description: Inhibition of CSK in human PC3 cell lysates at 10 uM using desthiobiotin-tagged ATP probe AX9989 followed by trypsinization by LC/MS analysis.
Test [4] concerns the target Rho-associated protein kinase 1 (Homo sapiens) (UniProt Q13464). The test can be described thus: Inhibition of ROCK1 in human PC3 cell lysates at 10 uM using desthiobiotin-tagged ATP probe AX9989 followed by trypsinization by LC/MS analysis.
The target of test [5] is Epidermal growth factor receptor (Homo sapiens) (UniProt P00533). Description: Inhibition of EGFR in human PC3 cell lysates at 10 uM using desthiobiotin-tagged ATP probe AX9989 followed by trypsinization by LC/MS analysis.
The target of test [6] is T1, Serine/threonine-protein kinase tousled-like 1 (Homo sapiens) (UniProt Q9UKI8).
T1 sequence (whole entry): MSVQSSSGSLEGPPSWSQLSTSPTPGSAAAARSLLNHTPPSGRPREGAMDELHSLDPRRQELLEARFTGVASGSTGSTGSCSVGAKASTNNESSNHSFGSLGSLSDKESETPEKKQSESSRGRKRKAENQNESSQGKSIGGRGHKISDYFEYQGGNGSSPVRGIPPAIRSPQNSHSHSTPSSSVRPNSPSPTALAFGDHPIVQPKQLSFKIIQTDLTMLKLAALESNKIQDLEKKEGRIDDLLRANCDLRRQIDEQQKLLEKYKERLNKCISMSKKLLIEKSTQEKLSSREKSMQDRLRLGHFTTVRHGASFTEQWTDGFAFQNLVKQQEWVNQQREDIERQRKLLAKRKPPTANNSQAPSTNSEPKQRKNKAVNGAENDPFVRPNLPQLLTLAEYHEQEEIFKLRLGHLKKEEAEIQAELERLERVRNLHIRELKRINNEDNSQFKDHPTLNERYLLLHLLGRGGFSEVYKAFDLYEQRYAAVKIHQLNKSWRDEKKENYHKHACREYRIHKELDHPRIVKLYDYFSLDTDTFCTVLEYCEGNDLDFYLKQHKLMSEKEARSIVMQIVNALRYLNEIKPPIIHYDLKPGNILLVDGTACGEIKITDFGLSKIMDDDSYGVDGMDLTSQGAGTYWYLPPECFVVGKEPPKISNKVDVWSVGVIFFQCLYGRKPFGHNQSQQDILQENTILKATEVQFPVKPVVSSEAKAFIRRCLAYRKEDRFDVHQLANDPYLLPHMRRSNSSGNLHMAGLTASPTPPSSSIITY
The test can be described thus: Inhibition of TLK1 in human PC3 cell lysates at 10 uM using desthiobiotin-tagged ATP probe AX9989 followed by trypsinization by LC/MS analysis.

In test [7] the target is T2, Eukaryotic elongation factor 2 kinase (Homo sapiens) (UniProt O00418).
T2 sequence (whole entry): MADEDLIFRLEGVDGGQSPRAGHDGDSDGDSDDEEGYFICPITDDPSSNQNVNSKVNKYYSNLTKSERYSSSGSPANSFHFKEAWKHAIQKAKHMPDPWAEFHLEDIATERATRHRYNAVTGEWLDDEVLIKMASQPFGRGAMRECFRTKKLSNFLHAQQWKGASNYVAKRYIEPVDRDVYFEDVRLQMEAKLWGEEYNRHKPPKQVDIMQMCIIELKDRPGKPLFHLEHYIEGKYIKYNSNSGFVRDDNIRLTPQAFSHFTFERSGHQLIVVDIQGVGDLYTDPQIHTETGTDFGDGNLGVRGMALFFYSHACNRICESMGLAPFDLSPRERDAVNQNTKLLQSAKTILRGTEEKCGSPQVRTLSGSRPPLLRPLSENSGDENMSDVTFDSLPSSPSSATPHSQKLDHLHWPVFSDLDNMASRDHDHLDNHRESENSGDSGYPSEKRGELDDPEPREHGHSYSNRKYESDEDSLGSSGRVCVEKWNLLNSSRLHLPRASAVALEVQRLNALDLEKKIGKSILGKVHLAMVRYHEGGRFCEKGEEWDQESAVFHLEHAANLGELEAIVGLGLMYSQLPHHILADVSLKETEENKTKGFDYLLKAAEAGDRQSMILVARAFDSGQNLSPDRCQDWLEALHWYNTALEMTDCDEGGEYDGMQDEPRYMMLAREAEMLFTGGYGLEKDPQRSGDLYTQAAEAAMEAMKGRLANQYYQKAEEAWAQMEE
The test can be described thus: Inhibition of eEF2K in human PC3 cell lysates at 10 uM using desthiobiotin-tagged ATP probe AX9989 followed by trypsinization by LC/MS analysis.

The target in test [8] is Microtubule-associated serine/threonine-protein kinase 3 (Homo sapiens, UniProt O60307). The test can be described thus: Inhibition of MAST3 in human PC3 cell lysates at 10 uM using desthiobiotin-tagged ATP probe AX9989 followed by trypsinization by LC/MS analysis.
Sequence of Microtubule-associated serine/threonine-protein kinase 3 (O60307 whole entry): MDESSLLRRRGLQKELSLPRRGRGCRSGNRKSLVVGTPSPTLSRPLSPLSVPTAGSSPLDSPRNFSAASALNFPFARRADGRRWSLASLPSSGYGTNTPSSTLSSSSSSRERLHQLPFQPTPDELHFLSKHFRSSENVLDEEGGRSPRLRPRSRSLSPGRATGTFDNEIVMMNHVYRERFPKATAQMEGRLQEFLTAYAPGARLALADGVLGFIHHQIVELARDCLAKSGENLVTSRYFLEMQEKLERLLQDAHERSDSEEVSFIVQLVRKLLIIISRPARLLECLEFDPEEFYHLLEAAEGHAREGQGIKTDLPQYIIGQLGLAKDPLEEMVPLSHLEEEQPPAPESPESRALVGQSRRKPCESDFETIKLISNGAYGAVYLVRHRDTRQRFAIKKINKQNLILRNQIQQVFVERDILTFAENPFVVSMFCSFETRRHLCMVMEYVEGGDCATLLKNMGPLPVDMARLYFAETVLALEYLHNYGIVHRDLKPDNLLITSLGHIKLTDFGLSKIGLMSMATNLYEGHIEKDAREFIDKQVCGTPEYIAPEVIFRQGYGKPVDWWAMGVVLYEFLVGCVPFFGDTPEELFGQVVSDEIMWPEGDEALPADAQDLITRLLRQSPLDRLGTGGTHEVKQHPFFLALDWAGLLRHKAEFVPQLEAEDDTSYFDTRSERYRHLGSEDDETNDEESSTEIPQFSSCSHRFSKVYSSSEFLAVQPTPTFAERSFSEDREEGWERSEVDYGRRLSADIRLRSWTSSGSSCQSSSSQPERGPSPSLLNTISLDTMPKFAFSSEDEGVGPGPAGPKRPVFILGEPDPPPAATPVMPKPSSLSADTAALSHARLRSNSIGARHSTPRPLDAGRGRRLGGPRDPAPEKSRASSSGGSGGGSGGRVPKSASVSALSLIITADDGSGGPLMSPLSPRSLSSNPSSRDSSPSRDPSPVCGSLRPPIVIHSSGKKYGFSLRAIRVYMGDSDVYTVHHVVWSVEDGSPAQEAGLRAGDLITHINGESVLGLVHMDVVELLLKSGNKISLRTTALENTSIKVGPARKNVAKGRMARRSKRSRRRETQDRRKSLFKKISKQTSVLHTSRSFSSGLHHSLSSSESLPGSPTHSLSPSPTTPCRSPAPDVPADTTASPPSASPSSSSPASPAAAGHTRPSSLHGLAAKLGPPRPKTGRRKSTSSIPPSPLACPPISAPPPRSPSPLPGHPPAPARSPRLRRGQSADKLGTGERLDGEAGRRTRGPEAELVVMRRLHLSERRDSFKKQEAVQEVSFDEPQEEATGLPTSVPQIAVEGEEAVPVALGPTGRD
The target of test [9] is eIF-2-alpha kinase GCN2 (Homo sapiens) (UniProt Q9P2K8). Description: Inhibition of GCN2 in human PC3 cell lysates at 10 uM using desthiobiotin-tagged ATP probe AX9989 followed by trypsinization by LC/MS analysis.
Test [10] concerns the target Serine/threonine-protein kinase 16 (Homo sapiens) (UniProt O75716). The test can be described thus: Inhibition of MPSK1 in human PC3 cell lysates at 10 uM using desthiobiotin-tagged ATP probe AX9989 followed by trypsinization by LC/MS analysis.
Test [11] deals with Mitogen-activated protein kinase 14 (Homo sapiens) (UniProt Q16539). Description: Inhibition of p38alpha in human PC3 cell lysates at 10 uM using desthiobiotin-tagged ATP probe AX9989 followed by trypsinization by LC/MS analysis.
The target in test [12] is Serine/threonine-protein kinase 10 (Homo sapiens) (UniProt O94804). The test can be described thus: Inhibition of LOK in human PC3 cell lysates at 10 uM using desthiobiotin-tagged ATP probe AX9989 followed by trypsinization by LC/MS analysis.
Test [13] has as its target Serine/threonine-protein kinase 26 (Homo sapiens) (UniProt Q9P289). The test can be described thus: Inhibition of MST4 in human PC3 cell lysates at 10 uM using desthiobiotin-tagged ATP probe AX9989 followed by trypsinization by LC/MS analysis.
The target of test [14] is Serine/threonine-protein kinase ATR (Homo sapiens) (UniProt Q13535). The test can be described thus: Inhibition of ATR in human PC3 cell lysates at 10 uM using desthiobiotin-tagged ATP probe AX9989 followed by trypsinization by LC/MS analysis.
Sequence of Serine/threonine-protein kinase ATR (Homo sapiens) (Q13535 whole entry, looked up): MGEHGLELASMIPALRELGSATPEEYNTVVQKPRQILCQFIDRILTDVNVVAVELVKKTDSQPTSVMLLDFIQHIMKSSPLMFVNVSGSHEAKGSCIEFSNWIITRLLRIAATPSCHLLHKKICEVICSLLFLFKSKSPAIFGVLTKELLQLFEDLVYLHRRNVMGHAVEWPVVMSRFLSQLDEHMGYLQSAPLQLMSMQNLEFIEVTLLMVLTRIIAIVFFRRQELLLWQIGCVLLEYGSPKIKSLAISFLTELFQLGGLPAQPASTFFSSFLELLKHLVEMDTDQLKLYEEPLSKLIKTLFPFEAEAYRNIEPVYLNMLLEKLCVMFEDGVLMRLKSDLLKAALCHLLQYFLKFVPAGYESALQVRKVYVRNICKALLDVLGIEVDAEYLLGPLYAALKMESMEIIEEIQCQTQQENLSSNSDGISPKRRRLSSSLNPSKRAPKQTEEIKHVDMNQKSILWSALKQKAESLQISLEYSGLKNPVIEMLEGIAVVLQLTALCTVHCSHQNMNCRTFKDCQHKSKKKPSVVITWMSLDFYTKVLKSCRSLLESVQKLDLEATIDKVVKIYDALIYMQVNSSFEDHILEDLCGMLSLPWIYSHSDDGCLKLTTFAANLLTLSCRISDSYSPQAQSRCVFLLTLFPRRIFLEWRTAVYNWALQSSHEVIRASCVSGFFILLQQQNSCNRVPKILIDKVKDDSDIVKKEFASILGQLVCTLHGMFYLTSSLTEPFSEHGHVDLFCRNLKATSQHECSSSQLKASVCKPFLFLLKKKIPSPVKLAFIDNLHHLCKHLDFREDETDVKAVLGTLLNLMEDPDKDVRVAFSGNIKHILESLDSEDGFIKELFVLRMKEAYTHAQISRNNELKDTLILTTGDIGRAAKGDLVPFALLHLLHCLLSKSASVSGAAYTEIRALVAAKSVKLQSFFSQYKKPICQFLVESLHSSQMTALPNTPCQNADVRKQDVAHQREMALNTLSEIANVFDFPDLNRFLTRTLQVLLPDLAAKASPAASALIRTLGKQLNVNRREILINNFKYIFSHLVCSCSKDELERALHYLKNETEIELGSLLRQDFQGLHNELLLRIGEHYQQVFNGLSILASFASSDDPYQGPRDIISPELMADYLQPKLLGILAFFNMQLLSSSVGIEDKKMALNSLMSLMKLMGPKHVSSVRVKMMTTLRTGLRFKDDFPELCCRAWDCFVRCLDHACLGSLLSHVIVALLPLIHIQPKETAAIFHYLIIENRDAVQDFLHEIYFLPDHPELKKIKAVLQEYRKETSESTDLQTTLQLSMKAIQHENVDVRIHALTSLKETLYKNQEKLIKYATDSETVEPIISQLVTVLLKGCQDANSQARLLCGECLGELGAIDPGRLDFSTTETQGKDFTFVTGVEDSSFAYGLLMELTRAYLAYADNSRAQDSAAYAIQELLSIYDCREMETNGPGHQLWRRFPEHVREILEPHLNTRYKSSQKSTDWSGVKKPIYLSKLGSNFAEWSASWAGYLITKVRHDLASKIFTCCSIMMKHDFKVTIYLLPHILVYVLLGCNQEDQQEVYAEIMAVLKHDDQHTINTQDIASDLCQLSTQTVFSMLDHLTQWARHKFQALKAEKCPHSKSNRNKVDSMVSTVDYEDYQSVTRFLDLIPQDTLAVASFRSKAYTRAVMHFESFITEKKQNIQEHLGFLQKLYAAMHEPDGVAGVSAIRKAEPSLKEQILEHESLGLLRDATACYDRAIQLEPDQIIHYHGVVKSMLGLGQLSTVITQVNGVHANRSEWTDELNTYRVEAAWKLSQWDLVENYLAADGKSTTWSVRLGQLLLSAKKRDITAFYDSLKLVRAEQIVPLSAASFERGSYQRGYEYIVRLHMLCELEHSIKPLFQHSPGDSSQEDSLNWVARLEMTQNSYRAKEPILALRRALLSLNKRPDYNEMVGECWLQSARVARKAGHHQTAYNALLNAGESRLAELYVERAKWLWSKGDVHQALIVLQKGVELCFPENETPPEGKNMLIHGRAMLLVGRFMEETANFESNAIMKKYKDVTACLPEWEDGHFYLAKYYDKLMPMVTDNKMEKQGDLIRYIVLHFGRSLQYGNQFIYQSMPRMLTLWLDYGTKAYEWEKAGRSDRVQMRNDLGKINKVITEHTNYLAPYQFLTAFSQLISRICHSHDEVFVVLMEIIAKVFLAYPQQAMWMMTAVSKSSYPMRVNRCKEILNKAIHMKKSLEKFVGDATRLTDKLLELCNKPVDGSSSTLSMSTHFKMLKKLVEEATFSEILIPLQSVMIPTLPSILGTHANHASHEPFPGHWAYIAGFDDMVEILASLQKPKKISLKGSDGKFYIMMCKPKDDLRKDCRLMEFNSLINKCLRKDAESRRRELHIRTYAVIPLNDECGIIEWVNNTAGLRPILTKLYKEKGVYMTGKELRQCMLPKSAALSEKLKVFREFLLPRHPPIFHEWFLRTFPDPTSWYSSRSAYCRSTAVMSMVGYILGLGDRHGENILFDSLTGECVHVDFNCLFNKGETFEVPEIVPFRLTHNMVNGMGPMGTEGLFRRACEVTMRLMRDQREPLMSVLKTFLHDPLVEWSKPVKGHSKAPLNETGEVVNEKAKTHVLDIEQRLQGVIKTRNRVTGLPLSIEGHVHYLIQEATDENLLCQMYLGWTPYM
The target in test [15] is Casein kinase II subunit alpha' (Homo sapiens) (UniProt P19784). Description: Inhibition of CK2alpha2 in human PC3 cell lysates at 10 uM using desthiobiotin-tagged ATP probe AX9989 followed by trypsinization by LC/MS analysis.
Sequence of Casein kinase II subunit alpha' (Homo sapiens) (P19784 whole entry, looked up): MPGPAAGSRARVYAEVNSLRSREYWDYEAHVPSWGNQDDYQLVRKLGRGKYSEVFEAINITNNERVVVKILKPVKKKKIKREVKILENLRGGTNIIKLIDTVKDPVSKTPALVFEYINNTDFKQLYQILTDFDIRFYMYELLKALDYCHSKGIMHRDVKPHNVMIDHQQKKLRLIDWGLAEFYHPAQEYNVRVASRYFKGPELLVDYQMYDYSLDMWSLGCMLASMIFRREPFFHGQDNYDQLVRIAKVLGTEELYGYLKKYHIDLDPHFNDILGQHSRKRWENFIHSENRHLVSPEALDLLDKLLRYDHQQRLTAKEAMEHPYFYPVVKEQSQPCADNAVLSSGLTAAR

Sequence of Serine/threonine-protein kinase 16 (Homo sapiens) (O75716 whole entry): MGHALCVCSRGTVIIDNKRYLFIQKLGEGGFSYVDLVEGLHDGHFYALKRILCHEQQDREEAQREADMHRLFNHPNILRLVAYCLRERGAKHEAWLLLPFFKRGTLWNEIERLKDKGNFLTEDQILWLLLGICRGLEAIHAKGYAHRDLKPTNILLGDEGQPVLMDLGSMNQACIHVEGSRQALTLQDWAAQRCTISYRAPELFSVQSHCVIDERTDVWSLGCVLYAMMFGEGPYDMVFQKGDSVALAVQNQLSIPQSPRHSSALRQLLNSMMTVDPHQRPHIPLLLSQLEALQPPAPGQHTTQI
Sequence of Serine/threonine-protein kinase 26 (Homo sapiens) (Q9P289 2-416 limits assumed): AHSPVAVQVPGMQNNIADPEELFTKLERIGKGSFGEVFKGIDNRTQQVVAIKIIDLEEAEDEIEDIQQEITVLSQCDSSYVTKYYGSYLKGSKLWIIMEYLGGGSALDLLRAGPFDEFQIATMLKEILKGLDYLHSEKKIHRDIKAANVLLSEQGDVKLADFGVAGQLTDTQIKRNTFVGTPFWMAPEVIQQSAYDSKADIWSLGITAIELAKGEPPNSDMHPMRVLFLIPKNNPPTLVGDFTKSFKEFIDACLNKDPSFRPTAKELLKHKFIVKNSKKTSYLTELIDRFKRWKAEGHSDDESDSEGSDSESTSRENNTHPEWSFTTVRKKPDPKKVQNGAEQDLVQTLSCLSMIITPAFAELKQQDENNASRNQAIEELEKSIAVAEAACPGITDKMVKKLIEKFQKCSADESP

The inhibition is the percentage by which the read-out fell short of the control. A low value points to little suppression. For the compound `O=C(NC1(Cc2ccc(F)cc2)CC1)c1ccc2nc(N[C@H]3CC[C@H](O)CC3)c3nccn3c2c1`, the inhibition in [1], in [2], in [3], in [4], in test [5] and in [6] was below 35% in each case. Also, the inhibition in test [7], in [8], in [9], in test [10], in test [11] and in test [12] was below 35% throughout. The inhibition in test [13], in test [14] and in [15] was below 35% in each case.

For `O=C(NC1(c2ccc(F)cc2)CC1)c1ccc2nc(N[C@H]3CC[C@H](O)CC3)c3nccn3c2c1`, the inhibition in [1], in test [2], in test [3], in [4], in test [5] and in test [6] was below 35% each time. In addition, the inhibition in [7] was below 35%; in [8], 97.6%; in [9] it was below 35%; in [10], below 35%; in [11] it was below 35%; in test [12], below 35%. Further, the inhibition in test [13], in test [14] and in [15] was below 35% throughout.

In the case of `O=C(NC1(c2ccccc2)CCC1)c1ccc2nc(N[C@H]3CC[C@H](O)CC3)c3nccn3c2c1`, the inhibition in [1], in test [2], in test [3], in test [4], in [5] and in test [6] was below 35% each time. In addition, the inhibition in test [7] was below 35%; in test [8], 99.2%; in [9], below 35%; in [10] it was below 35%; in test [11] it was below 35%; in test [12], below 35%. Moreover, the inhibition in test [13], in [14] and in test [15] was below 35% throughout.

On to `O=C(O)c1ccc2nc(N[C@H]3CC[C@H](O)CC3)c3nccn3c2c1`, for which the inhibition in test [1], in [2], in test [3], in [4], in test [5] and in test [6] was below 35% throughout. In addition, the inhibition is below 35% in test [7]; below 35% in test [8]; 41.7% in test [9]; 48.9% in [10]; below 35% in test [11]; below 35% in test [12]. Further, the inhibition in test [13] was below 35%; in [14], below 35%; in [15], 40.6%.
